Experimental data published in patent USRE32347E, “Hypocalcaemic peptides and process for their manufacture” (Ciba-Geigy Corp., priority 1984, dated 1987).
Ends that are not written are not given here.

Tests used:
blood calcium level = test: rat test described by Kumar et al, J. Endocrinology 33, page 470 [1965] (MRC units); assay type: in vivo; conditions: for result in the rat test according to Kumar et al., in words: compared with HT-C2 / parent peptide
Description: It lowers the plasma calcium level and plasma phosphate level of the blood of mammals, as can be shown by tests on rats weighing 50 to 150 g. […] It may therefore be used for the treatment of hypercalcaemiae and of bone diseases such as Paget's disease or osteoporosis.

[1] = tested on: calcium level of the blood; test: calcium level of the blood in patients with increased bone turn over; assay type: in vivo, human; conditions: intravenous, intramuscular or subcutaneous injection of 0.01 to 5 mg, e.g. in 0.1 molar acetate buffer of pH 4.6

Substance	result in the rat test according to Kumar et al., in words (blood calcium level)	other results
HT-C1 sulfoxide: sulfoxide obtained from HT-C1 with 5% hydrogenperoxide (CGNLSTCMLGTYTQDFNKFHTFPQTAIGVGAP; ends and bridges not checked; also: dimer (HT-C1, dimer of HT-C2); UniProt P01258 85-116, looked up)	equally active	
HT-C1: the dimer of HT-C2; active component of human calcitonin (CGNLSTCMLGTYTQDFNKFHTFPQTAIGVGAP; ends and bridges not checked; also: dimer; UniProt P01258 85-116, looked up)	about as good results as the product obtained in Example 1 (HT-C2)	
HT-C11: active component of human calcitonin from fractions with K=4.0 (CGNLSTCMLGTYTQDFNKFHTFPQTAIGVGAP; ends and bridges not checked; cysteine pairing not given here; UniProt P01258 85-116, looked up)		activity (blood calcium level; in the rat, per mg of peptide): 100-200 MRC units per mg
Human calcitonin		calcium level of the blood [1]: lowers
